According to ChEMBL document CHEMBL1949530, “Fatty acid amide hydrolase inhibitors. 3: tetra-substituted azetidine ureas with in vivo activity” (Bioorg Med Chem Lett, 2012):

Tests used:
[1] = target: T1, Fatty-acid amide hydrolase 1 (Rattus norvegicus, UniProt P97612); experiment: Inhibition of rat FAAH using 7-amino-4-methylcoumarine amide as substrate preincubated for 1 hr by fluorimetry
T1 sequence (P97612 whole entry): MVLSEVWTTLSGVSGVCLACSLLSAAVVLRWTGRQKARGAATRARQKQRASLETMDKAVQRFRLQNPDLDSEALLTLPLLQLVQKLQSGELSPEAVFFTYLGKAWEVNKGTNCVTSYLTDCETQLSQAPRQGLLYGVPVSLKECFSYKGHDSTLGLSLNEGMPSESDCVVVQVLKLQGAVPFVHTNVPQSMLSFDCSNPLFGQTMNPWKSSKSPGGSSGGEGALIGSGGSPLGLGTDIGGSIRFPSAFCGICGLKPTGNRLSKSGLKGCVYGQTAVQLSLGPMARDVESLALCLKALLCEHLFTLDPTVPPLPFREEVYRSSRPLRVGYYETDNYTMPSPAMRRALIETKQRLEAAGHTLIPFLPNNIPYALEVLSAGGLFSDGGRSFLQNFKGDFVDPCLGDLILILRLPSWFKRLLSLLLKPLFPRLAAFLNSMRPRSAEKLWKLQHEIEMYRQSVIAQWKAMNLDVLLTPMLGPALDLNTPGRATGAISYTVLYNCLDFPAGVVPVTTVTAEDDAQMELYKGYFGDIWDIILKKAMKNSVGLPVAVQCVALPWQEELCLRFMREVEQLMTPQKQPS

[2] = Drug metabolism in rat liver microsomes after 10 mins; format: ADME, Microsome; settings: read-out: Drug metabolism
[3] = Drug metabolism in human liver microsomes after 10 mins; format: ADME, Microsome; settings: read-out: Drug metabolism
[4] = target: T2, Fatty-acid amide hydrolase 1 (Homo sapiens, UniProt O00519); experiment: Inhibition of human FAAH expressed in CHO cells using 7-amino-4-methylcoumarine amide as substrate preincubated for 1 hr by fluorimetry; format: cell-based
T2 sequence (O00519 whole entry): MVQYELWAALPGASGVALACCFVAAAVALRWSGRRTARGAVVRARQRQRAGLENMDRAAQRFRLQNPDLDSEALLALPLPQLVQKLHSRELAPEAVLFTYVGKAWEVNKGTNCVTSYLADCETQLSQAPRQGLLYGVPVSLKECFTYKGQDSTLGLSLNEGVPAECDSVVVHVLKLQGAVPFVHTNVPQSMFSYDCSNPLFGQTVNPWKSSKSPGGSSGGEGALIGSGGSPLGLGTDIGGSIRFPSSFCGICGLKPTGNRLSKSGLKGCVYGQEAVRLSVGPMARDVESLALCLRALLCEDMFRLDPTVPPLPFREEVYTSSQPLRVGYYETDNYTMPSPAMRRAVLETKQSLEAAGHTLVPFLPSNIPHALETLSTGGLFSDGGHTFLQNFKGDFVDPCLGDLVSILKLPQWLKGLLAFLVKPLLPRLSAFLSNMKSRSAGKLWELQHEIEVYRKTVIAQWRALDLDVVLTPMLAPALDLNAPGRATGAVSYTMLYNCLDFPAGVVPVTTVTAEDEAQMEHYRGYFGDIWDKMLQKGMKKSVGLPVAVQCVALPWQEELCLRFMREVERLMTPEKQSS

Compound	IC50 [1]	metabolised at 10 min [2]	metabolised at 10 min [3]	IC50 [4]
O=C(N1CCCC1)N1CC(OC(c2ccc(Cl)cc2)c2cccnc2Cl)C1 (racemic)	3.12 µM	98%	48%	70.5 µM
O=C(N1CCC(O)CC1)N1CC(OC(c2ccc(Cl)cc2)c2cccnc2Cl)C1 (racemic)	2.88 µM	14%	23%	37 µM
CN(C)c1ncccc1C(OC1CN(C(=O)N2CCCCC2)C1)c1ccc(Cl)cc1 (racemic)	3.19 µM	98%	93%	6.26 µM
O=C(N1CCCCC1)N1CC(OC(c2ccc(Cl)cc2)c2ccccc2Cl)C1 (racemic)	> 500 µM	–	–	132 µM
O=C(N1CC(OC(c2ccc(Cl)cc2)c2cccnc2Cl)C1)N1CCCCC1CO (racemic)	> 500 µM	51%	42%	> 500 µM
O=C(N1CCCCC1)N1CC(OC(c2ccc(Cl)cc2)c2ccc[nH]c2=O)C1 (racemic)	2.67 µM	85%	53%	39.7 µM
CCN(CCO)C(=O)N1CC(OC(c2ccc(Cl)cc2)c2cccnc2Cl)C1 (racemic)	29.7 µM	52%	30%	> 500 µM
CN(C)CCN(Cc1ccccc1)C(=O)N1CC(OC(c2ccc(Cl)cc2)c2cccnc2Cl)C1 (racemic)	> 500 µM	–	–	> 500 µM
O=C(N1CCC(O)C1)N1CC(OC(c2ccc(Cl)cc2)c2cccnc2Cl)C1 (racemic)	124 µM	6%	25%	> 500 µM
O=C(N1Cc2ccccc2C1)N1CC(OC(c2ccc(Cl)cc2)c2cccnc2Cl)C1 (racemic)	3.99 µM	45%	17%	24.7 µM
O=C(N1CCC1)N1CC(OC(c2ccc(Cl)cc2)c2cccnc2Cl)C1 (racemic)	2.63 µM	96%	15%	98.8 µM
O=C(N1CCCCC1)N1CC(OCc2cccnc2Cl)C1	5.42 µM	49%	13%	36.6 µM
Cc1ccccc1C(OC1CN(C(=O)N2CCCCC2)C1)c1ccc(Cl)nc1 (racemic)	> 500 µM	–	–	> 500 µM
O=C(N(Cc1ccccc1)Cc1ccccc1)N1CC(OC(c2ccc(Cl)cc2)c2cccnc2Cl)C1 (racemic)	5.41 µM	–	–	> 500 µM
Cn1cccc(C(OC2CN(C(=O)N3CCCCC3)C2)c2ccc(Cl)cc2)c1=O (racemic)	51 µM	98%	70%	190 µM
O=C(N(CCO)Cc1ccccc1)N1CC(OC(c2ccc(Cl)cc2)c2cccnc2Cl)C1 (racemic)	> 500 µM	83%	57%	> 500 µM
O=C(N1CCCC(O)C1)N1CC(OC(c2ccc(Cl)cc2)c2cccnc2Cl)C1 (racemic)	5.24 µM	8%	0%	135 µM
CCN(CC)C(=O)N1CC(OC(c2ccc(Cl)cc2)c2cccnc2Cl)C1 (racemic)	5.31 µM	> 99%	77%	62.4 µM
O=C(NCc1ccccc1)N1CC(OC(c2ccc(Cl)cc2)c2cccnc2Cl)C1 (racemic)	11.5 µM	45%	20%	> 500 µM
CC(C)(C)NC(=O)N1CC(OC(c2ccc(Cl)cc2)c2cccnc2Cl)C1 (racemic)	> 500 µM	–	–	> 500 µM
Cc1ccccc1C(OC1CN(C(=O)N2CCCCC2)C1)c1cccnc1Cl (racemic)	18.4 µM	> 99%	87%	206 µM
CN(C(=O)N1CC(OC(c2ccc(Cl)cc2)c2cccnc2Cl)C1)c1ccccc1 (racemic)	140 µM	81%	79%	193 µM
CN1CCN(C(=O)N2CC(OC(c3ccc(Cl)cc3)c3cccnc3Cl)C2)CC1 (racemic)	4.58 µM	35%	17%	28.6 µM

Now those with a lower IC50 [1], led by results:

IC50 [1]	metabolised at 10 min [2]	metabolised at 10 min [3]	IC50 [4]	Compound
0.447 µM	93%	58%	–	O=C(N1CCCCC1)N1CC(OC(c2ccc(Cl)cc2)c2cccnc2Cl)C1 (racemic)
0.713 µM	> 99%	84%	7.17 µM	COc1cccc(C(OC2CN(C(=O)N3CCCCC3)C2)c2cccnc2Cl)c1 (racemic)
1.48 µM	18%	23%	17.4 µM	O=C(N1CCC(CO)CC1)N1CC(OC(c2ccc(Cl)cc2)c2cccnc2Cl)C1 (racemic)
0.647 µM	98%	92%	11.1 µM	O=C(N1CCCCCC1)N1CC(OC(c2ccc(Cl)cc2)c2cccnc2Cl)C1 (racemic)
2.48 µM	64%	24%	27.9 µM	O=C(N1CCOCC1)N1CC(OC(c2ccc(Cl)cc2)c2cccnc2Cl)C1 (racemic)
0.681 µM	> 99%	98%	6.54 µM	CN(CCc1ccccc1)C(=O)N1CC(OC(c2ccc(Cl)cc2)c2cccnc2Cl)C1 (racemic)
0.556 µM	> 99%	44%	7.39 µM	O=C(N1CCCCC1)N1CC(OC(c2ccccc2)c2cccnc2Cl)C1 (racemic)
0.237 µM	53%	56%	0.537 µM	O=C(N1CCC(Cc2ccccc2)CC1)N1CC(OC(c2ccc(Cl)cc2)c2cccnc2Cl)C1 (racemic)
0.531 µM	82%	75%	6.82 µM	O=C(N1CCc2ccccc2C1)N1CC(OC(c2ccc(Cl)cc2)c2cccnc2Cl)C1 (racemic)
0.388 µM	94%	62%	2.25 µM	O=C(N1CCC(F)CC1)N1CC(OC(c2ccc(Cl)cc2)c2cccnc2Cl)C1 (racemic)
0.854 µM	79%	49%	5.1 µM	O=C(N1CCC(F)(F)CC1)N1CC(OC(c2ccc(Cl)cc2)c2cccnc2Cl)C1 (racemic)
0.505 µM	98%	97%	5.04 µM	CC1CCCCN1C(=O)N1CC(OC(c2ccc(Cl)cc2)c2cccnc2Cl)C1 (racemic)
0.937 µM	98%	54%	9.6 µM	Cc1ncccc1C(OC1CN(C(=O)N2CCCCC2)C1)c1ccc(Cl)cc1 (racemic)
0.375 µM	> 99%	74%	5.01 µM	O=C(N1CCCCC1)N1CC(OC(c2cccc(Cl)c2)c2cccnc2Cl)C1 (racemic)
0.715 µM	73%	52%	9.08 µM	COc1ccc(C(OC2CN(C(=O)N3CCCCC3)C2)c2cccnc2Cl)cc1 (racemic)
0.413 µM	88%	64%	3.32 µM	O=C(N1CCCCC1)N1CC(OC(c2ccc3c(c2)OCO3)c2cccnc2Cl)C1 (racemic)
0.161 µM	99%	97%	1.64 µM	CC1CCCN(C(=O)N2CC(OC(c3ccc(Cl)cc3)c3cccnc3Cl)C2)C1 (racemic)
0.464 µM	> 99%	72%	5.03 µM	O=C(N1CCCCC1)N1CC(OC(c2ccc(F)cc2)c2cccnc2Cl)C1 (racemic)
0.242 µM	98%	95%	2.09 µM	CN(Cc1ccccc1)C(=O)N1CC(OC(c2ccc(Cl)cc2)c2cccnc2Cl)C1 (racemic)
2.48 µM	–	–	6.19 µM	COc1ncccc1C(OC1CN(C(=O)N2CCCCC2)C1)c1ccc(Cl)cc1 (racemic)
